Source: ChEMBL document CHEMBL6121002, “Discovery of novel bicyclic and tricyclic cyclohepta[b]thiophene derivatives as multipotent AChE and BChE inhibitors, in-Vivo and in-Vitro assays, ADMET and molecular docking simulation” (Eur J Med Chem, 2025)
Active and inactive are the calls of the source. No cut-off for these calls is given here.

Key:
Rattus norvegicus [1] = test: Antialzheimer activity in AlCl3-induced learning and memory impairment in Sprague-Dawley rat assessed as reduction in escape latency time at 30 mg/kg, po measured after 5 weeks by MWM test relative to control; assay type: functional; set-up: scale not given: the % may be the effect or the level left
Rattus norvegicus [2] = test: Antialzheimer activity in AlCl3-induced learning and memory impairment in Sprague-Dawley rat assessed as increase in time spent in target quadrant at 30 mg/kg, po measured after 5 weeks by […]; assay type: functional, organism-based
Rattus norvegicus [3] = test: Antialzheimer activity in AlCl3-induced learning and memory impairment in Sprague-Dawley rat assessed as time taken for learning at 30 mg/kg, po measured after 5 weeks by MWM test (reference value: 53.67 +/- 1.05 sec); assay type: functional
Rattus norvegicus [4] = test: Antialzheimer activity in AlCl3-induced learning and memory impairment in Sprague-Dawley rat assessed as time taken for memory at 30 mg/kg, po measured after 5 weeks by MWM test (reference value: 6.833 +/- 0.79 sec); assay type: functional
Rattus norvegicus [5] = test: Antialzheimer activity in AlCl3-induced learning and memory impairment in Sprague-Dawley rat assessed as spontaneous alternation at 30 mg/kg, po measured after 5 weeks by Y-maze test (reference value: 50 +/- 2.89 %); assay type: functional
Rattus norvegicus [6] = test: Antialzheimer activity in AlCl3-induced learning and memory impairment in Sprague-Dawley rat assessed as reduction in TNF-alpha level in brain tissue at 30 mg/kg, po measured after 5 weeks by ELISA relative to control; assay type: functional; set-up: scale not given: the % may be the effect or the level left
Rattus norvegicus [7] = test: Antialzheimer activity in AlCl3-induced learning and memory impairment in Sprague-Dawley rat assessed as fold increase in dopamine level in brain tissue at 30 mg/kg, po measured after 5 weeks by fluorometric analysis relative to control; assay type: functional
Acetylcholinesterase = Acetylcholinesterase (Homo sapiens, UniProt P22303); test: Inhibition of AChE (unknown origin) incubated for 40 mins in presence of substrate
Cholinesterase = Cholinesterase (Homo sapiens, UniProt P06276); test: Inhibition of BChE (unknown origin) using butyrylthiocholine iodide as substrate incubated for 20 mins by fluorescence based assay
[8] = Selectivity index, ratio of IC50 for BChE (unknown origin) using butyrylthiocholine iodide as substrate to IC50 for AChE (unknown origin)
Rattus norvegicus [9] = test: Antialzheimer activity in AlCl3-induced learning and memory impairment in Sprague-Dawley rat assessed as fold increase in time spent in target quadrant at 30 mg/kg, po measured after 5 weeks by […] relative to control; assay type: functional
Rattus norvegicus [10] = test: Antialzheimer activity in AlCl3-induced learning and memory impairment in Sprague-Dawley rat assessed as fold increase in 5-HT level in brain tissue at 30 mg/kg, po measured after 5 weeks by fluorometric analysis relative to control; assay type: functional
Rattus norvegicus [11] = test: Antialzheimer activity in AlCl3-induced learning and memory impairment in Sprague-Dawley rat assessed as fold increase in norepinephrine level in brain tissue at 30 mg/kg, po measured after 5 weeks by fluorometric analysis relative to control; assay type: functional
Rattus norvegicus [12] = test: Antialzheimer activity in AlCl3-induced learning and memory impairment in Sprague-Dawley rat assessed as fold decrease in AChE level in brain tissue at 30 mg/kg, po measured after 5 weeks by fluorometric analysis relative to control; assay type: functional

Chain of Acetylcholinesterase (P22303 whole entry): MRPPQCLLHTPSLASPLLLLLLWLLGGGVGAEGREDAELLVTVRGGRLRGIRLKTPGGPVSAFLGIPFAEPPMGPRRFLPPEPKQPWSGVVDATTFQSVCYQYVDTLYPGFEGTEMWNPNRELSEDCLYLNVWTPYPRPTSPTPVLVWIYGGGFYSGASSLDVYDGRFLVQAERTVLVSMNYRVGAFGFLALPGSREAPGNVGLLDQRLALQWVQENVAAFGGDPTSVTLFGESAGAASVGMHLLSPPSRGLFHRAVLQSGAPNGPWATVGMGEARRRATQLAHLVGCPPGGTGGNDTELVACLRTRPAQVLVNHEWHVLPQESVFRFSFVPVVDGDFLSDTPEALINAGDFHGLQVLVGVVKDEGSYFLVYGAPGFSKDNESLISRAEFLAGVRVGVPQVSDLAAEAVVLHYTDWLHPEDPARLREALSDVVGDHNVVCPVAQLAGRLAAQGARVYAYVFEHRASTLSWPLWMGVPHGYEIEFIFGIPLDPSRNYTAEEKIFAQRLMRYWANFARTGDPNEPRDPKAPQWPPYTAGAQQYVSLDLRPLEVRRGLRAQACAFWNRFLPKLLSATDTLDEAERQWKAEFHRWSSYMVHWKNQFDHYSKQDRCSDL
Chain of Cholinesterase (P06276 whole entry): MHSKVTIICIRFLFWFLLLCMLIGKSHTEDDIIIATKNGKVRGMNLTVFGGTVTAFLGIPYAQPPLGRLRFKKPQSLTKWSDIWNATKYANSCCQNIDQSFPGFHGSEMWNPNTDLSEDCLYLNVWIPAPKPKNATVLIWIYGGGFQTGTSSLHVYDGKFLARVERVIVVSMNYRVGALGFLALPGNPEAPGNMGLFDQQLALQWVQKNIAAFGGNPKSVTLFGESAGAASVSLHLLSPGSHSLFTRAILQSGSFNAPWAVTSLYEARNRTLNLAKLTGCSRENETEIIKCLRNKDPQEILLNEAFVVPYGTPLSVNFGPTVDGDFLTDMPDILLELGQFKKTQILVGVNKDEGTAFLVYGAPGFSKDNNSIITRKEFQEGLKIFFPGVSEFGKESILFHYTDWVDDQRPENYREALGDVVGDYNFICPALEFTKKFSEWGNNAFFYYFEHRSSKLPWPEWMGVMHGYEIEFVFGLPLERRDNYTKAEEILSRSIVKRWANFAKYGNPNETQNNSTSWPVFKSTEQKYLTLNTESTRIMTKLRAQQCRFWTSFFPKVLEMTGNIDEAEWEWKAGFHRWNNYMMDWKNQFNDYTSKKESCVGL

| Structure (SMILES) | Activity (Rattus norvegicus [1]) | Activity (Rattus norvegicus [2]) | Time (Rattus norvegicus [3]) [s] | Time (Rattus norvegicus [4]) [s] | Activity (Rattus norvegicus [5]) [%] | Activity (Rattus norvegicus [6]) [%] | fold change (FC) (Rattus norvegicus [7]) | IC50 (Acetylcholinesterase) [µM] | IC50 (Cholinesterase) [µM] | Ratio IC50 [8] | fold change (FC) (Rattus norvegicus [9]) | fold change (FC) (Rattus norvegicus [10]) | fold change (FC) (Rattus norvegicus [11]) | fold change (FC) (Rattus norvegicus [12]) |
| --- | --- | --- | --- | --- | --- | --- | --- | --- | --- | --- | --- | --- | --- | --- |
| COc1cc2c(cc1OC)C(=O)C(CC1CCN(Cc3ccccc3)CC1)C2 (stereo not drawn) [DONEPEZIL] | 28% | Active | 14.78 | 42.67 | 85 | 63 | – | – | – | – | – | – | – | – |
| CCOC(=O)c1c(OC(=O)c2ccc(Cl)cc2)sc2c1CCCCC2 | – | Active | 34 | 27.67 | 70.67 | 49.2 | 1.7 | 1.05 | 2.9 | 2.76 | – | – | – | – |
| COc1ccc(N2C(=O)c3c(sc4c3CCCCC4)OC2c2ccc(Cl)cc2)cc1 (stereo not drawn) | 30% | Active | 16.33 | 41.67 | 85 | 70.8 | 3.8 | 3.14 | 7.76 | 2.47 | 5.9 | 5.1 | 2.9 | – |
| O=C1c2c(sc3c2CCCCC3)OC(c2ccc(Cl)cc2)N1c1ccc(Cl)cc1 (stereo not drawn) | 22% | Active | 11.83 | 46.5 | 83.33 | 73.9 | 4.2 | 12.6 | 308 | 24.4 | 6.5 | 5.8 | ~3.2 | – |
| COc1ccc(N2C(=O)c3c(sc4c3CCCCC4)OC2c2ccccc2)cc1 (stereo not drawn) | <=43% | Active | 23 | 38.17 | 74.33 | 62.6 | 3.5 | 4.05 | 11 | 2.73 | 5.6 | – | 1.7 | 2.3 |
| O=C1c2c(sc3c2CCCCC3)OC(c2ccc(Cl)cc2)N1c1ccccc1 (stereo not drawn) | <=46% | Active | 24.67 | 36.83 | 73.83 | 54.6 | 1.7 | 0.55 | 6.9 | 12.6 | 5.4 | – | 1.7 | 2.3 |
| CCOC(=O)c1c(OC(=O)c2ccccc2)sc2c1CCCCC2 | – | Active | 37 | 24.17 | 63.5 | 43.8 | 1.7 | 2.16 | 7.5 | 3.47 | – | – | – | – |
| O=C1c2c(sc3c2CCCCC3)OC(c2ccccc2)N1c1ccc(Cl)cc1 (stereo not drawn) | <=47% | Active | 25.67 | 35.5 | 71.5 | 54.5 | 1.7 | 9.48 | 24.7 | 2.6 | 5.2 | – | 1.7 | 2.3 |
| O=C1c2c(sc3c2CCCCC3)OC(c2ccccc2)N1c1ccccc1 (stereo not drawn) | 32% | Active | 17 | 35.83 | 80 | 61.2 | 3.8 | 0.51 | 2.48 | 4.86 | 5.3 | 4.5 | 2.2 | 3.5 |
